US8507219B2, “Method of treating inflammation with statins” (MUSC Foundation for Research Development, priority 1997, dated 2013)

Legend:
[1] = tested on: NO production in rat resident macrophages; assay: LPS-/cytokine-induced NO production (nitrite) in rat resident peritoneal macrophages; format: cell-based; settings: LPS 1.0 μg/ml, 24 h
Protocol: Isolation of Rat Macrophages and Induction of NO Production Resident macrophages were obtained from rats by peritoneal lavage with sterile RPMI 1640 medium containing 1% fetal bovine serum and 100 μg/ml gentamicin (Wang et al., 1995). Cells were washed three times with RPMI 1640 at 4° C. All cell cultures were maintained at 37° C. in a humidified incubator containing 5% CO2 in air. Macrophages, at a concentration of 2×10^6/ml in RPMI 1640 medium containing L-glutamine and gentamicin, were added in volumes of 800 μl to a 35 mm plate. After 1 h, nonadherent cells were removed by washing and 800 μl of serum-free RPMI 1640 medium with various stimuli were added to the adherent cells. After 24 h incubation in 5% CO2 in air at 37° C., the culture supernatants were transferred to measure NO production (Geng et al., 1995; Wang et al., 1995).
Isolation of rat macrophages and induction of NO production Resident macrophages were obtained from rat by peritoneal lavage with sterile RPMI 1640 medium containing 1% fetal bovine serum and 100 μg/ml gentamicin as described herein. Cells were washed three times with RPMI 1640 at 4° C. All cell cultures were maintained at 37° C. in a humidified incubator containing 5% CO2 in air. Macrophages at a concentration of 2×10^6/ml in RPMI 1640 medium containing L-glutamine and gentamicin were added in volumes of 800 μl to a 35 mm plate. After 1 h, nonadherent cells were removed by washing and 800 μl of serum-free RPMI 1640 medium with various stimuli were added to the adherent cells. After incubation in 5% CO2 in air at 37° C., culture supernatants were transferred to measure NO production.
Isolation of rat macrophages and induction of NO production Resident macrophages were obtained from rat by peritoneal lavage with sterile RPMI 1640 medium containing 1% FBS and 100 μg/ml gentamicin. Cells were washed three times with RPMI 1640 at 4° C., and were maintained at 37° C. in a humidified incubator containing 5% CO2 in air. Macrophages at a concentration of […] in RPMI 1640 medium containing L-glutamine and gentamicin were added in volumes of 800 μl to a 35-mm plate. After 1 h, nonadherent cells were removed by washing, and 800 μl of serum-free RPMI 1640 medium with various stimuli was added to the adherent cells. After 24 h the culture supernatants were transferred to measure NO production.
Protein was measured (Bradford, 1976).

[2] = tested on: NO production in rat C6 glial cells; assay: LPS-/cytokine-induced NO production (nitrite) in C6 glial cells; format: cell-based; settings: 2 nM calyculin A along with LPS and cytokines, 24 h
[3] = tested on: TNF-α production in rat primary astrocytes; assay: LPS-induced TNF-α production (ELISA) in rat primary astrocytes; format: cell-based; settings: Astrocytes, LPS 1.0 μg/ml, 24 h
Protocol: Determination of TNF-α and IL-1β in culture supernatants Cells were stimulated with LPS in serum-free media for 24 h in the presence or absence of forskolin or rolipram, and concentrations of TNF-α and IL-1β were measured in culture supernatants by using high-sensitivity enzyme-linked immunosorbent assay (R&D Systems, USA) according to the manufacturer's instructions.

iNOS = assay: Expression of iNOS protein (immunoblot) and mRNA (Northern) in rat primary astrocytes; format: cell-based; settings: LPS 1.0 μg/ml
Protocol: (§1) Immunoblot analysis for iNOS Following 24 h incubation in the presence or absence of stimuli by different cytokines or LPS, macrophages were scraped off, washed with Hank's buffer, and homogenized in 50 mM Tris-HCl (pH 7.4) containing protease inhibitors (1 nM PMSF, 5 μg/ml aprotinin, 5 μg/ml pepstatin A, and 5 μg/ml leupeptin). After electrophoresis the proteins were transferred onto a nitrocellulose membrane, and the iNOS band was visualized by immunoblotting with antibodies against mouse macrophage iNOS and [^125I]-labeled protein A (Singh et al., 1988).
RNA isolation, Northern blot analysis, and reverse-transcriptase coupled polymerase chain reaction (RT-PCR) Stimulated peritoneal macrophages were taken out from culture dishes directly by adding Ultraspec-II RNA reagent (Biotecx Laboratories Inc.) and total RNA was isolated according to the manufacturer's protocol. For northern blot analyses, 20 μg of total RNA was electrophoresed on 1.2% denaturing formaldehyde-agarose gels, electrotransferred to Hybond-Nylon Membrane (Amersham) and hybridized at 68° C. with ^32P-labeled cDNA probe using Express Hyb hybridization solution (Clontech) as described by the manufacturer. […]; After hybridization filters were washed two to three times in solution I (2×SSC, 0.05% SDS) for 1 h at room temperature followed by solution II (0.1×SSC, 0.1% SDS) at 50° C. for another hour. The membranes were then dried and exposed to X-ray film (Kodak). The same filters were stripped and rehybridized with probes for GAPDH. The relative mRNA content for iNOS was measured after scanning the bands with a Biorad (Model GS-670) imaging densitometer.
as §1, with “of” for “of stimuli by”, “stimuli, cells” for “cytokines or LPS, macrophages”, “inhibitors.” for “inhibitors (1 nM PMSF, 5 μg/ml aprotinin, 5 μg/ml pepstatin A, and 5 μg/ml leupeptin).”, “A.” for “A (Singh et al., 1988).”
RNA isolation and Northern blot analysis Cells were taken out from culture dishes directly by adding Ultraspec-II RNA reagent (Biotecx Laboratories Inc.) and total RNA was isolated according to the manufacturer's protocol. For Northern blot analyses, 20 μg of total RNA was electrophoresed on 1.2% denaturing formaldehyde-agarose gels, electrotransferred to Hybond-Nylon Membrane (Amersham) and hybridized at 68° C. with ^32P-labeled cDNA probe using Express Hyb hybridization solution (Clontech) as described by the manufacturer. […]; After hybridization filters were washed two or three times in solution I (2×SSC, 0.05% SDS) for one hour at room temperature followed by solution II (0.1×SSC, 0.1% SDS) at 50° C. for another hour. The membranes were then dried and exposed with X-ray films (Kodak). The same filters were stripped and rehybridized with probes for GAPDH. The relative mRNA content for iNOS was measured after scanning the bands with a Biorad (Model GS-670) imaging densitometer.
as §1, with “After a” for “Following”, “of” for “of stimuli by”, “stimuli, cells” for “cytokines or LPS, macrophages”, “mM” for “nM”, “A.” for “A (Singh et al., 1988).”
RNA isolation and Northern blot analysis Cells were taken out from culture dishes directly by adding Ultraspec-II RNA reagent (Biotecx Laboratories Inc., Houston, Tex.), and total RNA was isolated according to the manufacturer's protocol. […]

PP 1/2A = assay: PP1/2A activity in homogenates of LPS-treated astrocytes; format: cell-based, rat; settings: LPS 1.0 μg/ml, 30 min; okadaic acid 0-20 nM
Protocol: In vitro PP1/2A assay The extraction and assay for PP1/2A were performed as described (Begum and Ragolia, 1996). Control and treated cells were scraped off the dishes with 0.3 ml of phosphatase extraction buffer containing 20 mM imidazole-HCl, 2 mM EDTA, 2 mM EGTA, pH 7.0, with 10 μg/ml each of aprotinin, leupeptin, antipain, soybean trypsis inhibitor, 1 mM benzamide, and 1 mM PMSF. The cells were sonicated for 10 s and centrifuged at 2000×g for 5 min, and the supernatants were used for the assay of phosphatase activities using the protein phosphatase assay kit (Life Technologies, Inc.) according to the manufacturer's protocol.

[4] = tested on: murine macrophage cell line RAW 264.7; assay: LPS-/cytokine-induced NO production and iNOS protein in RAW 264.7; format: cell-based; settings: 24 h
Protocol: Cells in this study were incubated in serum-free DMEM/F-12 received calyculin A along with LPS and cytokines. Samples tested included control, LPS+TNF-α, TNF-α+IFN-γ, TNF-α+IL-1β, LPS+TNF-α+calyculin A, TNF-α+IFN-γ+calyculin A, and TNF-α+IL-1β+calyculin A. After 24 h, concentration of nitrite (nmol/mg/24 h) was measured in the supernatants as described in Example 6. Data are mean±S.D. of three different studies. Cell homogenates were electrophoresed, transferred on […] against mouse macrophage iNOS as described.

[5] = tested on: TNF-α production in rat resident macrophages; assay: LPS-/IFN-γ-induced TNF-α production (ELISA) in rat macrophages; format: cell-based; settings: Macrophages, LPS 1.0 μg/ml, 24 h
iNOS promoter [6] = assay: iNOS promoter-derived CAT activity in rat primary astrocytes; format: cell-based; settings: LPS 1.0 μg/ml, 14 h
Protocol: (§2) Construction of reporter plasmid, transfection and assay of chloramphenicol acetyl transferase activity The CAT (chloramphenicol acetyl transferase) under the control of nitric oxide synthase promoter (iNOS) was created by subcloning 1.5 kb promoter from pGEM-NOS at Sph I and Sal I restriction sites of pCAT-basic vector (Promega). […]. The cells were transfected by using the lipofectin (Life Technologies Inc., USA) method, as has been described in manufacturer's protocol, with 2 μg of reporter plasmid. They were then stimulated 24 h after transfection and harvested after 14 h of stimulation. CAT activity was measured as has been described.

iNOS promoter [7] = assay: iNOS promoter-derived CAT activity in rat macrophages; format: cell-based; settings: LPS 1.0 μg/ml, 14 h
Protocol: as §2

SMILES	LPS-induced NO production [1]	stimulation of the production of NO [2]	TNF-α ([3]; inhibitor 1 nM)	TNF-α ([3]; inhibitor 2 nM)	LPS-mediated induction of iNOS protein and mRNA (iNOS)	activities of PP 1/2A (PP 1/2A)	LPS- and cytokine-induced production of NO and iNOS protein [4]	TNF-α ([5]; inhibitor 1 nM)	TNF-α ([5]; inhibitor 2 nM)	TNF-α ([3]; inhibitor 5 nM)	TNF-α ([3]; inhibitor 10 nM)	LPS-induced iNOS promoter-derived CAT activity (iNOS promoter [6])	LPS-induced iNOS promoter-derived CAT activity (iNOS promoter [7])	TNF-α ([5]; inhibitor 5 nM)	TNF-α ([5]; inhibitor 10 nM)
COC[C@@H]([C@H](O)[C@H](O)C(=O)NCC[C@H](C)c1nc(/C=C/C[C@@H]2O[C@]3(C[C@@H](O)[C@@H]2C)O[C@H]([C@H](C[C@H](O)[C@H](C)[C@H](O)[C@H](C)/C=C(C)/C(C)=C/C=C/C(C)=C\C#N)OC)[C@H](OP(=O)(O)O)C3(C)C)co1)N(C)C [Calyculin A]	inhibited the LPS-induced NO production in rat peritoneal macrophages	more than three fold	12.5 ± 1.6 ng/24 h/mg protein	16.9 ± 2.1 ng/24 h/mg protein	enhanced the LPS-mediated induction of iNOS protein and mRNA	also inhibited the activities of PP 1/2A	inhibit the LPS- and cytokine-induced production of NO and the expression of iNOS protein	27.5 ± 3.1 ng/24 h/mg protein	31.2 ± 3.6 ng/24 h/mg protein						
C=C1[C@@H](O)[C@@H]2O[C@]3(CC[C@H](/C=C/[C@@H](C)[C@@H]4CC(C)=C[C@@]5(O[C@H](C[C@@](C)(O)C(=O)O)CC[C@H]5O)O4)O3)CC[C@H]2O[C@@H]1[C@@H](O)C[C@H](C)[C@H]1O[C@@]2(CCCCO2)CC[C@H]1C [Okadaic acid]						dose-dependently inhibited the activities of PP 1/2A				10.8 ± 1.2 ng/24 h/mg protein	14.6 ± 1.8 ng/24 h/mg protein	stimulated the LPS-induced CAT activity in astrocytes	inhibited the LPS-induced CAT activity in macrophages	24.3 ± 1.9 ng/24 h/mg protein	28.9 ± 3.4 ng/24 h/mg protein
